Experimental data from US20100003217A1, “Compounds and Pharmaceutical Compositions for the Treatment of Viral Infections” (priority 2008, published 2010).
“And” between values parts separate entries of the source, which are not always exact repeats. Equal values may be shown once.

System: human primary hepatocytes
Test: Metabolic disposition of [^14C]-Compound 1 and [^14C]-2′-C-methyl guanosine in human primary hepatocytes (incubation medium, cellular extracts, nucleotide levels)
Format: in vitro ADME
Description: Primary hepatocytes: Freshly isolated cells from animal and human liver were obtained in suspension on ice. Cells were pelleted by centrifugation at 70-75×g (rat) or 95-90×g (monkey and human) and resuspended at 0.8 million cells per mL of platting medium (William's E supplemented with 5% FBS, 0.5% penicillin-streptomycin, 1% L-glutamine, 4 μg/mL insulin and 1 μM dexamethasone). Multi-well collagen I-coated plates (rat tail collagen type I; 12- or 6-well) were then seeded by addition of 1 mL (12-well; 0.8 million cells/well) or 2 mL (6-well; 1.6 million cells/well) of cell suspension. The plates were gently shaken to evenly distribute the cells and placed in an incubator at 37° C. for approximately 4 to 6 hours to allow cells to attach. Once cells were attached, the platting medium was removed and replaced with hepatocyte culture medium (William's E supplemented with penicillin-streptomycin, 1% L-glutamine, 1% insulin-transferrin-selenium and 0.1 μM dexamethasone). Cells were left overnight in an incubator at 37° C. to acclimatize to culture and the medium.
Hepatocyte incubations with radiolabeled Compound 1 and 2′-C-methyl guanosine, both labeled in the C-8 position of the guanine moiety, were conducted at a final volume of 2.0 mL hepatocyte culture medium/well ([…]). Culture medium from overnight incubation of cells was removed and replaced with fresh medium, pre-warmed to 37° C., containing 1 or 10 μM [^14C]-Compound 1 ([…]) or [^14C]-2′-C-methyl guanosine (127 DPM/μmol) from a stock solution in DMSO (final DMSO concentration was 0.1%) or 50% ethanol (final ethanol concentration was 0.2%). After 1, 4, 8 and 24 hours, 0.5-1.0 mL of incubation medium was removed and stored at −20° C. until analysis (described below). The remaining medium was discarded and cell monolayers were carefully washed two times with ice-cold PBS. Following the last wash, all PBS was carefully removed and 1.0 mL of extraction solution (ice-cold 70% methanol) added. Cells were scrapped off and suspended in the extraction solution, transferred to 2 mL polypropylene microfuge tubes and intracellular contents extracted overnight at −20° C.
Preliminary identification of putative metabolites was conducted by comparing the retention time of observed metabolites in incubation medium and cellular extracts with retention times obtained with chemically synthesized standards using the chromatography conditions described below. Further identification of 2′-C-methyl guanosine nucleotides (mono-, di- and triphosphate) was carried out by incubating cellular extract samples with alkaline phosphatase (10 units for 60 min at 37° C.) and comparing the HPLC retention times of the resulting nucleosides with that of authentic 2′-C-methyl guanosine.
Cellular extracts were prepared by centrifugation at 16,000 RCF using an Eppendorf microcentrifuge (Eppendorf, Model 5415D) for 10 min to remove cellular debris. An aliquot of 5-10 μL of the supernatant was added to 5 mL of EcoLite™ (MP, Irvine, Calif.) liquid scintillation cocktail and radioactivity measured by liquid scintillation counting (LSC) using a Beckman Coulter LS6500 multipurpose liquid scintillation counter (Beckman Instruments, Fullerton, Calif.). The remaining sample was then dried using a Labconco refrigerated centrivap concentrator (Labconco, Kansas City, Mo.). Dry extracts were reconstituted in 120 μL of HPLC-grade water and centrifuged at 16,000 RCF using an Eppendorf microcentrifuge for 10 min. Prior to HPLC analysis (described below), radioactivity of the concentrated extracts was measured by LSC using 5 μL aliquots. Extraction recovery was then determined by comparing total radioactivity in extracts before and after drying. The remaining extract was then analyzed by HPLC with online radioactivity detection using a Flow Scintillation Analyzer Radiomatic™ 515TR. Radioactivity in the separated components was quantified by integrating the peaks using Flo-One™ Software (Perkin Elmer Life Sciences). […]

[1] = human hepatocytes (Hu775), 1 μM [^14C]-Compound 1, 1 h
[2] = human hepatocytes (Hu775), 1 μM [^14C]-Compound 1, 8 h
[3] = human hepatocytes (Hu775), 1 μM [^14C]-Compound 1, 24 h
[4] = human hepatocytes Hu775, 1 μM [^14C]-2′-C-methyl guanosine, 1 h
[5] = human hepatocytes Hu775, 1 μM [^14C]-2′-C-methyl guanosine, 8 h
[6] = human hepatocytes Hu775, 1 μM [^14C]-2′-C-methyl guanosine, 24 h

metabolites observed in cellular extracts (% of total radioactivity) (human hepatocytes (Hu759, Hu775), 10 μM [^14C]-2′-C-methyl guanosine, 1 h): 0.51% and 0.63% | metabolites observed in cellular extracts (% of total radioactivity) (human hepatocytes (Hu759, Hu775), 10 μM [^14C]-2′-C-methyl guanosine, 4 h): 1.64% and 2.36% | metabolites observed in cellular extracts (% of total radioactivity) (human hepatocytes (Hu759, Hu775), 10 μM [^14C]-2′-C-methyl guanosine, 8 h): 4.54% and 3.46% | metabolites observed in cellular extracts (% of total radioactivity) (human hepatocytes (Hu759, Hu775), 10 μM [^14C]-2′-C-methyl guanosine, 24 h): 7.71% and 10.6% | metabolites observed in cellular extracts (% of total radioactivity) (human hepatocytes (Hu759, Hu775), 10 μM [^14C]-Compound 1, 1 h): 4.93% and 6.09% | metabolites observed in cellular extracts (% of total radioactivity) (human hepatocytes (Hu759, Hu775), 10 μM [^14C]-Compound 1, 4 h): 8.01% and 12.4% | metabolites observed in cellular extracts (% of total radioactivity) (human hepatocytes (Hu759, Hu775), 10 μM [^14C]-Compound 1, 8 h): 13.99% and 11.1% | metabolites observed in cellular extracts (% of total radioactivity) (human hepatocytes (Hu759, Hu775), 10 μM [^14C]-Compound 1, 24 h): 13.4% and 17.05% | 2′-C-methyl guanosine nucleotide levels in cellular extracts [1]: 1.40 pmol/million cells | metabolites observed in cellular extracts (% of total radioactivity) [1]: 7.94% | 2′-C-methyl guanosine nucleotide levels in cellular extracts [2]: 7.70 pmol/million cells | metabolites observed in cellular extracts (% of total radioactivity) [2]: 13.0% | 2′-C-methyl guanosine nucleotide levels in cellular extracts [3]: 11.2 pmol/million cells | metabolites observed in cellular extracts (% of total radioactivity) [3]: 12.4% | 2′-C-methyl guanosine nucleotide levels in cellular extracts (human hepatocytes Hu759, 10 μM [^14C]-2′-C-methyl guanosine, 0 h): 0 pmol/million cells | 2′-C-methyl guanosine nucleotide levels in cellular extracts (human hepatocytes Hu759, 10 μM [^14C]-2′-C-methyl guanosine, 1 h): 2.10 pmol/million cells | 2′-C-methyl guanosine nucleotide levels in cellular extracts (human hepatocytes Hu759, 10 μM [^14C]-2′-C-methyl guanosine, 4 h): 7.50 pmol/million cells | 2′-C-methyl guanosine nucleotide levels in cellular extracts (human hepatocytes Hu759, 10 μM [^14C]-2′-C-methyl guanosine, 8 h): 22.1 pmol/million cells | 2′-C-methyl guanosine nucleotide levels in cellular extracts (human hepatocytes Hu759, 10 μM [^14C]-2′-C-methyl guanosine, 24 h): 46.0 pmol/million cells | 2′-C-methyl guanosine nucleotide levels in cellular extracts (human hepatocytes Hu759, 10 μM [^14C]-Compound 1, 0 h): 0 pmol/million cells | 2′-C-methyl guanosine nucleotide levels in cellular extracts (human hepatocytes Hu759, 10 μM [^14C]-Compound 1, 1 h): 3.00 pmol/million cells | 2′-C-methyl guanosine nucleotide levels in cellular extracts (human hepatocytes Hu759, 10 μM [^14C]-Compound 1, 4 h): 21.0 pmol/million cells | 2′-C-methyl guanosine nucleotide levels in cellular extracts (human hepatocytes Hu759, 10 μM [^14C]-Compound 1, 8 h): 45.0 pmol/million cells | 2′-C-methyl guanosine nucleotide levels in cellular extracts (human hepatocytes Hu759, 10 μM [^14C]-Compound 1, 24 h): 69.0 pmol/million cells | 2′-C-methyl guanosine nucleotide levels in cellular extracts [5]: 2.70 pmol/million cells | Major metabolites observed in cellular extracts (% of total radioactivity) [5]: 6.83 % of total radioactivity | 2′-C-methyl guanosine nucleotide levels in cellular extracts [6]: 4.00 pmol/million cells | Major metabolites observed in cellular extracts (% of total radioactivity) [6]: 9.04 % of total radioactivity | 2′-C-methyl guanosine nucleotide levels in cellular extracts (human hepatocytes Hu775, 10 μM [^14C]-2′-C-methyl guanosine, 0 h): 0 pmol/million cells | 2′-C-methyl guanosine nucleotide levels in cellular extracts (human hepatocytes Hu775, 10 μM [^14C]-2′-C-methyl guanosine, 1 h): 2.90 pmol/million cells | 2′-C-methyl guanosine nucleotide levels in cellular extracts (human hepatocytes Hu775, 10 μM [^14C]-2′-C-methyl guanosine, 4 h): 10.5 pmol/million cells | 2′-C-methyl guanosine nucleotide levels in cellular extracts (human hepatocytes Hu775, 10 μM [^14C]-2′-C-methyl guanosine, 8 h): 15.0 pmol/million cells | 2′-C-methyl guanosine nucleotide levels in cellular extracts (human hepatocytes Hu775, 10 μM [^14C]-2′-C-methyl guanosine, 24 h): 50.0 pmol/million cells | 2′-C-methyl guanosine nucleotide levels in cellular extracts (human hepatocytes Hu775, 10 μM [^14C]-Compound 1, 0 h): 0 pmol/million cells | 2′-C-methyl guanosine nucleotide levels in cellular extracts (human hepatocytes Hu775, 10 μM [^14C]-Compound 1, 1 h): 7.10 pmol/million cells | 2′-C-methyl guanosine nucleotide levels in cellular extracts (human hepatocytes Hu775, 10 μM [^14C]-Compound 1, 4 h): 38.4 pmol/million cells | 2′-C-methyl guanosine nucleotide levels in cellular extracts (human hepatocytes Hu775, 10 μM [^14C]-Compound 1, 8 h): 55 pmol/million cells | 2′-C-methyl guanosine nucleotide levels in cellular extracts (human hepatocytes Hu775, 10 μM [^14C]-Compound 1, 24 h): 161 pmol/million cells
SMILES: C[C@@]1(O)[C@H](O)[C@@H](COP(=O)(O)OP(=O)(O)O)O[C@H]1n1cnc2c(=O)[nH]c(N)nc21 [Compound 6, [(2R)-2-methyl-β-D-ribofuranosyl]guanine 5′-diphosphate]
2′-C-methyl guanosine nucleotide levels in cellular extracts (human hepatocytes (Hu775), 1 μM [^14C]-Compound 1, 0 h): BLD (BLD = below limit of detection (0.02 pmol/million cells)) | 2′-C-methyl guanosine nucleotide levels in cellular extracts (human hepatocytes Hu775, 1 μM [^14C]-2′-C-methyl guanosine, 0 h): BLD (BLD = below limit of detection (0.02 pmol/million cells)) | 2′-C-methyl guanosine nucleotide levels in cellular extracts [4]: BLD (BLD = below limit of detection (0.02 pmol/million cells)) | Major metabolites observed in cellular extracts (% of total radioactivity) [4]: BLD (BLD = below limit of detection (30 DPM))
